Reference: BigSolDB 2.1

CN1CC(=O)N2[C@H](c3ccc4c(c3)OCO4)c3[nH]c4ccccc4c3C[C@@H]2C1=O
solubility (mole fraction) (in transcutol, 298.15 K): 0.00876
solubility (mole fraction) (in transcutol, 303.15 K): 0.00973
solubility (mole fraction) (in transcutol, 308.15 K): 0.0107
solubility (mole fraction) (in transcutol, 313.15 K): 0.0119
solubility (mole fraction) (in transcutol, 318.15 K): 0.0133
solubility (mole fraction) (in transcutol, 323.15 K): 0.0149
solubility (mole fraction) (in transcutol, 328.15 K): 0.0166
solubility (mole fraction) (in transcutol, 333.15 K): 0.0182
solubility (mole fraction) (in water, 298.15 K): 5.74e-07
solubility (mole fraction) (in water, 303.15 K): 7.59e-07
solubility (mole fraction) (in water, 308.15 K): 1.02e-06
solubility (mole fraction) (in water, 313.15 K): 1.34e-06
solubility (mole fraction) (in water, 318.15 K): 1.75e-06
solubility (mole fraction) (in water, 323.15 K): 2.26e-06
solubility (mole fraction) (in water, 328.15 K): 2.77e-06
solubility (mole fraction) (in water, 333.15 K): 3.45e-06
